Entries after “also recorded” stand apart in the source; their conditions may differ.
System: anthers of B. rapa x B. oleracea cross (F1)
Assay: Opening of anthers after treating immature flower buds of the AC hybrid
Type: in vivo, Brassica rapa x Brassica oleracea interspecific hybrid
Conditions: 20 nM; F1 of this cross normally does not form open anthers
Excerpt: Alternatively or in addition, preferably in the provided first seed plant, at least about 2%, 4%, 6%, 8%, 10%, 15%, 20%, 25%, 30%, 35%, 40%, 45%, 50%, 55%, 60%, 65%, 70%, 75%, 80%, 85%, 90%, 95% or 100% of the anthers remain closed upon pollen maturation. Preferably, less than about 95%, 90%, 85%, 80%, 75%, 70%, 65%, 60%, 55%, 50%, 45%, 40%, 35%, 30%, 25%, 20%, 15%, 10%, 8%, 6%, 4%, 2% or less than about 1% of the anthers open upon pollen maturation.

SMILES: NC1=NC(=O)C(=Cc2ccc(O)cc2)S1 [Mirin, 2-Amino-5-[(4-hydroxyphenyl)methylene]-4(5H)-thiazolone]
- opening of anthers: open anther; also recorded: opening of anthers

Source: patent US20240324531A1, “METHOD TO INCREASE POLLEN FERTILITY” (Keygene N.V., priority 2021, published 2024)
